The results in this text go back to patent US9260439B2, “Dihydropyrrolopyrimidine derivatives” (PFIZER INC., priority 2014, dated 2016).

For this assay, the target named is truncated PI3Kα (p110α/iSH2 p85α) (Homo sapiens (Human), UniProt P42336). The assay can be described thus: PI3KA_Act fluorescence polarization kinase assay (Ki). The conditions noted are these: 1 mM ATP. Type of assay: biochemical. From the text:
2) p110α-iSH2 p85α Complex (Full Length p110α and p85α iSH2)(“PI3KA_Act”)
Genes encoding for full length p110α and p85α nSH-iSH2=niSH2 (p85a aminoacids 322-600) subunits of PI3Kα complex were subcloned from existing constructs into pFASTBAC Dual vector (Life Technologies, Carlsbad, Calif.) using standard cloning procedures. Gene encoding p110α subunit was subcloned into polyhedrine promoter while gene encoding p85α niSH2 domains was subcloned into p10 promoter. Additionally, Human Rhinovirus 3C Protease (“HRV 3C”) site was introduced between nSH2 and iSH2, replacing aminoacids 431-438 of p85α with […] HRV 3C recognition sequence, using standard QuickChange mutagenesis protocol (Agilent Technologies, CA). Recombinant baculovirus was generated using Bac-to-Bac protocol (Life Technologies, Carlsbad, Calif.). Large scale expression was conducted in Sf21 (Life Technologies, Carlsbad, Calif.) cells at a multiplicity of infection (“MOI”)=1 for 48 hours. Cells were lyzed in 50 mM Tris pH 8.0, 250 mM NaCl, 5% glycerol, 0.25 mM TCEP, and 20 mM imidazole. The p110α-niSH2 p85α complex was purified from clarified supernatant using Immobilized Metalo Affinity Chromatography (“IMAC”). The protein was eluted from the column using 50 mM Tris pH 8.0, 200 mM NaCl, 0.25 mM TCEP, and 200 mM imidazole. Following elution p110α-niSH2 p85α complex was dialyzed against 4 liters of 50 mM Tris pH 8.0, 200 mM NaCl, 0.25 mM TCEP, and 40 mM imidazole in the presence of PreScission Protease (1:70 molar ratio of Protease to Protein) and TEV protease (1:40 molar ratio protease to protein) for 16 hours at 4° C. The protein was further purified using reverse IMAC to remove cleaved histidine tag and contaminants captured during initial IMAC purification. The mixture of p110α-iSH2 p85α complex and cleaved nSH2 was recovered in reverse IMAC 40 mM imidazole flow through and 60 mM imidazole wash fractions. Those fractions were pulled together and loaded on Superdex 200 26/60 SEC column equilibrated in 25 mM Tris, pH 8.0, 100 mM NaCl, 2% glycerol, and 2 mM TCEP. Following SEC, chromatography peak fractions containing p110α-iSH2 p85α complex were pulled and concentrated to 4.3 mg/mL. Purity and integrity of the complex was confirmed using LCMS, analytical SEC and SDS-PAGE (sodium dodecyl sulfate polyacrylamide gel electrophoresis) analysis.
The biochemical assays of kinase activity of full-length PI3Kα (full-length p110α/p85a) or truncated PI3Kα (p110α/iSH2 p85a) were conducted using a fluorescence polarization format similar to the procedure of Yuan J., et al., (2011) “PF-04691502, a Potent and Selective Oral Inhibitor of PI3K and mTOR Kinases with Antitumor Activity”, Mol Cancer Ther. 10, 2189-2199. The enzymatic reactions were conducted in 50 μL volumes in 96-well plates. The reactions contained human recombinant PI3Kα (2 nM full-length p110α/p85α or 0.5 nM p110α/iSH2 p85) and 30 μM phosphatidylinositol 4,5-bisphosphate (“PIP2”) (Cayman Chemical Company, Ann Arbor, Mich.) and were sonicated for 1 minute prior to adding PI3Kα enzyme (PI3KA_Act or PI3KA_FL), DMSO or test compound (12-point 3-fold serial dilution, 3 μM top dose, 2° A) DMSO final concentration), 5 mM MgCl2, 50 mM HEPES pH 7.4, 150 mM NaCl, 1 mM DTT ((2S,3S)-1,4-bis(sulfanyl)butane-2,3-diol), and 0.05% 3-[(3-cholamidopropyl)dimethylammonio]-1-propanesulfonate (“CHAPS”). […] The reactions were incubated for 30 min at room temperature, stopped with EDTA pH 8 (10 mM final concentration). In a detection plate, 15 μL of detector/probe mixture, containing 480 nM GST-Grp1 PH domain protein (University of Dundee, Dundee, UK) and 12 nM carboxytetramethylrhodamine (“TAMRA”)-tagged fluorescent phosphatidylinositol (3,4,5)-triphosphate (“PIP3”) (Echelon Biosciences, Inc., Salt Lake City, Utah) in assay buffer, was mixed with 15 μL of kinase reaction mixture. The plate was shaken for 30 minutes and fluorescence polarization values were measured on an LJL Analyst HT plate reader (Molecular Devices, Sunnyvale, Calif.). […]
(In general: Polarisation of emitted light reports the rotation of a fluorescent probe.)

Where only a bound is given, the exact number is not on record here.

Chain of truncated PI3Kα (p110α/iSH2 p85α) (P42336 whole entry, the tested form may be a part): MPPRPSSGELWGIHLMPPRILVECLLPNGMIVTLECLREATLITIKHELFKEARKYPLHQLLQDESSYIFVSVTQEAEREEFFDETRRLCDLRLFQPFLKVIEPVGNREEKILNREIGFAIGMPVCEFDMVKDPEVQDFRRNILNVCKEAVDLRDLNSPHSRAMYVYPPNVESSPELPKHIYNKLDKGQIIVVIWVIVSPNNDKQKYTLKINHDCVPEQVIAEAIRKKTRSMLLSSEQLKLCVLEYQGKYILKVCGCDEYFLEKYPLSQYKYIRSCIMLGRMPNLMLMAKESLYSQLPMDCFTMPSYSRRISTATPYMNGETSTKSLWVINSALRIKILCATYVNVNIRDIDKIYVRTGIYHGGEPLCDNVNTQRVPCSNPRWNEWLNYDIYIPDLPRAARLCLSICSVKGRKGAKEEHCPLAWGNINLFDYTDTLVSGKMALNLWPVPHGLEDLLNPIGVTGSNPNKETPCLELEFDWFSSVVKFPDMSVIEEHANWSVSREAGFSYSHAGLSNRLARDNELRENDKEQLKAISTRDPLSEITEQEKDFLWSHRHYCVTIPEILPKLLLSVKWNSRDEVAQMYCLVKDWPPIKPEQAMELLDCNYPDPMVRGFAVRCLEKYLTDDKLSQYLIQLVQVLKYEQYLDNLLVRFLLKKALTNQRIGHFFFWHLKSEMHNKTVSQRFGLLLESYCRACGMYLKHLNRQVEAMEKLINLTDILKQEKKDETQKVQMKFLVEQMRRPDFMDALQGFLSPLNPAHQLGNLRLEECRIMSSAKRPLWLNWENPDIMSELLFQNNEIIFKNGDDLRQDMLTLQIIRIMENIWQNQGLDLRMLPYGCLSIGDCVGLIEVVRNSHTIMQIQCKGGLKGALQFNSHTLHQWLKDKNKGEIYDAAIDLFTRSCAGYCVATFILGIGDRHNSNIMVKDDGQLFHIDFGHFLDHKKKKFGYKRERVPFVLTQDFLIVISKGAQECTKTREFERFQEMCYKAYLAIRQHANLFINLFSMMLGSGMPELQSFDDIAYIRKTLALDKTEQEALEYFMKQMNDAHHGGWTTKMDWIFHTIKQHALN

As to `C[C@H]1COCCN1c1nc(-c2cnc(N)nc2)c2c(n1)N(C1CN(C(=O)OCC(=O)N(C)C)C1)CC2` [Example 152], the “PI3KA_Act Ki” value was found to be 0.103 nM. With `COCCCS(=O)(=O)N1CC(N2CCc3c(-c4cnc(N)nc4)nc(N4CCOC[C@@H]4C)nc32)C1` [Example 153], the “PI3KA_Act Ki” value is 0.105 nM. On to `C[C@H]1COCCN1c1nc(-c2cnc(N)nc2)c2c(n1)N(C1CN(S(=O)(=O)c3cn(C)cn3)C1)CC2` [Example 154], for which the “PI3KA_Act Ki” value came out at 0.286 nM. For the compound `COCCS(=O)(=O)N1CC(N2CCc3c(-c4cnc(N)nc4)nc(N4CCOC[C@@H]4C)nc32)C1` [Example 155], the “PI3KA_Act Ki” value amounted to 0.116 nM.

With `C[C@H]1COCCN1c1nc(-c2cnc(N)nc2)c2c(n1)N([C@H]1CCN(C(=O)OC3COC3)C1)CC2` [Example 156], the “PI3KA_Act Ki” value came out at 0.088 nM. As for `C[C@H]1COCCN1c1nc(-c2cnc(N)nc2)c2c(n1)N(C(C)(C)C)CC2` [Example 157], the figure is 0.173 nM. With `Nc1ncc(-c2nc(N3CCOCC3)nc3c2CCN3C23CC(C2)C3)cn1` [Example 158], the “PI3KA_Act Ki” value was found to be 0.200 nM.

Consider `C[C@H]1COCCN1c1nc(-c2cnc(N)nc2)c2c(n1)N(C1CN(S(=O)(=O)CC3CC3)C1)CC2` [Example 159], for which the “PI3KA_Act Ki” value is recorded as 0.097 nM. For the compound `C[C@H]1COCCN1c1nc(-c2cnc(N)nc2)c2c(n1)N(C1CN(S(=O)(=O)c3cnn(C)c3)C1)CC2` [Example 160], the “PI3KA_Act Ki” value is on record as 0.221 nM.

In the case of `COCCCS(=O)(=O)N1CC(N2CCc3c(-c4cnc(N)nc4)nc(N4CCOCC4)nc32)C1` [Example 161], the “PI3KA_Act Ki” value turned out to be 0.202 nM. For the compound `C[C@H]1COCCN1c1nc(-c2cnc(N)nc2)c2c(n1)N(C1CN(S(=O)(=O)C(F)(F)F)C1)CC2` [Example 163], the “PI3KA_Act Ki” value was 0.188 nM. Turning to `C[C@H]1COCCN1c1nc(-c2cnc(N)nc2)c2c(n1)N(C1(C)CCN(S(C)(=O)=O)C1)CC2` (stereo partly drawn) [Example 164], the “PI3KA_Act Ki” value came to 0.030 nM. As for `COC(=O)C(C)(C)N1CCc2c(-c3cnc(N)nc3)nc(N3CCOCC3)nc21` [Example 165], the “PI3KA_Act Ki” value is 0.449 nM. In the case of `C[C@H]1COCCN1c1nc(-c2cnc(N)nc2)c2c(n1)N(C1CN(P(C)(C)=O)C1)CC2` [Example 166], the “PI3KA_Act Ki” value was determined as 0.280 nM. As to `C[C@H](O)COC(=O)N1CC(N2CCc3c(-c4cnc(N)nc4)nc(N4CCOCC4)nc32)C1` [Example 167], the “PI3KA_Act Ki” value worked out at 0.230 nM. As for `C[C@H]1COCCN1c1nc(-c2cnc(N)nc2)c2c(n1)N([C@H]1CCN(P(C)(C)=O)C1)CC2` [Example 168], the “PI3KA_Act Ki” value turned out to be 0.297 nM. For the compound `Nc1ncc(-c2nc(N3CCOCC3)nc3c2CCN3C2CN(S(=O)(=O)CC3CC3)C2)cn1` [Example 169], the “PI3KA_Act Ki” value is on record as 0.129 nM. Turning to `COCCS(=O)(=O)N1CC(N2CCc3c(-c4cnc(N)nc4)nc(N4CCOCC4)nc32)C1` [Example 170], the “PI3KA_Act Ki” value came to 0.124 nM. For the compound `Nc1ncc(-c2nc(N3CCOC[C@@H]3CO)nc3c2CCN3C2CC(F)(F)C2)cn1` [Example 171], the “PI3KA_Act Ki” value turned out to be 2.745 nM. Next, `CNS(=O)(=O)N1CC[C@@](C)(N2CCc3c(-c4cnc(N)nc4)nc(N4CCOCC4)nc32)C1` [Example 172]: 0.029 nM; `CNS(=O)(=O)N1CC[C@](C)(N2CCc3c(-c4cnc(N)nc4)nc(N4CCOCC4)nc32)C1` [Example 173]: below 0.018 nM; `C[C@H]1COCCN1c1nc(-c2cnc(N)nc2)c2c(n1)N([C@]1(C)CCN(S(C)(=O)=O)C1)CC2` [Example 174]: 0.030 nM. Regarding `C[C@H]1COCCN1c1nc(-c2cnc(N)nc2)c2c(n1)N([C@@]1(C)CCN(S(C)(=O)=O)C1)CC2` [Example 175], the “PI3KA_Act Ki” value is reported as 0.023 nM. As for `CC(C)C(C)(C)N1CCc2c(-c3cnc(N)nc3)nc(N3CCOCC3)nc21` [Example 176], the “PI3KA_Act Ki” value amounted to 0.462 nM. For the compound `C[C@H]1COCCN1c1nc(-c2cnc(N)nc2)c2c(n1)N([C@@H]1CCN(P(C)(C)=O)C1)CC2` [Example 177], the “PI3KA_Act Ki” value was determined as 0.615 nM. Turning to `Cn1cc(S(=O)(=O)N2CC(N3CCc4c(-c5cnc(N)nc5)nc(N5CCOCC5)nc43)C2)cn1` [Example 178], the “PI3KA_Act Ki” value worked out at 0.125 nM. As for `Cn1cnc(S(=O)(=O)N2CC(N3CCc4c(-c5cnc(N)nc5)nc(N5CCOCC5)nc43)C2)c1` [Example 179], the figure is 0.344 nM; as for `CP(C)(=O)N1CC[C@@H](N2CCc3c(-c4cnc(N)nc4)nc(N4CCOCC4)nc32)C1` [Example 180], 1.759 nM. With `CP(C)(=O)N1CC[C@H](N2CCc3c(-c4cnc(N)nc4)nc(N4CCOCC4)nc32)C1` [Example 181], the “PI3KA_Act Ki” value amounted to 0.296 nM.

As to `C[C@H](O)COC(=O)N1CC(N2CCc3c(-c4cnc(N)nc4)nc(N4CCOC[C@@H]4C)nc32)C1` [Example 182], the “PI3KA_Act Ki” value was found to be 0.357 nM.

Regarding `CC(C)(CO)N1CCc2c(-c3cnc(N)nc3)nc(N3CCOCC3)nc21` [Example 183], the “PI3KA_Act Ki” value was 0.393 nM.

Consider `CCC(C)(C)N1CCc2c(-c3cnc(N)nc3)nc(N3CCOCC3)nc21` [Example 184], for which the “PI3KA_Act Ki” value came out at 0.647 nM. Consider `C[C@@H](O)COC(=O)N1CC(N2CCc3c(-c4cnc(N)nc4)nc(N4CCOCC4)nc32)C1` [Example 185], for which the “PI3KA_Act Ki” value came to 0.182 nM. As for `C[C@@H](O)COC(=O)N1CC(N2CCc3c(-c4cnc(N)nc4)nc(N4CCOC[C@@H]4C)nc32)C1` [Example 186], the “PI3KA_Act Ki” value is 0.274 nM. With `CCCC(C)(C)N1CCc2c(-c3cnc(N)nc3)nc(N3CCOCC3)nc21` [Example 187], the “PI3KA_Act Ki” value was 0.839 nM.

Turning to `COCC(C)(C)N1CCc2c(-c3cnc(N)nc3)nc(N3CCOCC3)nc21` [Example 188], the “PI3KA_Act Ki” value was 0.642 nM.

Turning to `CP(C)(=O)N1CC(N2CCc3c(-c4cnc(N)nc4)nc(N4CCOCC4)nc32)C1` [Example 189], the “PI3KA_Act Ki” value worked out at 1.162 nM. With `CNS(=O)(=O)N1CC(C)(N2CCc3c(-c4cnc(N)nc4)nc(N4CCOCC4)nc32)C1` [Example 190], the “PI3KA_Act Ki” value amounted to 0.040 nM.

For `CC(C)(CNS(C)(=O)=O)N1CCc2c(-c3cnc(N)nc3)nc(N3CCOCC3)nc21` [Example 191], the “PI3KA_Act Ki” value stood at 0.881 nM. Regarding `C[C@@]1(N2CCc3c(-c4cnc(N)nc4)nc(N4CCOCC4)nc32)CCN(S(N)(=O)=O)C1` [Example 192], the “PI3KA_Act Ki” value is 0.053 nM. In the case of `CC(C)(C)OC(=O)N1CC[C@](C)(N2CCc3c(-c4cnc(N)nc4)nc(N4CCOCC4)nc32)C1` [Example 194], the “PI3KA_Act Ki” value was below 0.018 nM. On to `CC(C)(C)OC(=O)N1CC[C@@](C)(N2CCc3c(-c4cnc(N)nc4)nc(N4CCOCC4)nc32)C1` [Example 195], for which the “PI3KA_Act Ki” value is on record as 0.166 nM.

As for `CCS(=O)(=O)N1CC(C)(N2CCc3c(-c4cnc(N)nc4)nc(N4CCOCC4)nc32)C1` [Example 196], the “PI3KA_Act Ki” value amounted to 0.024 nM. With `CC1(N2CCc3c(-c4cnc(N)nc4)nc(N4CCOCC4)nc32)CN(S(=O)(=O)C2CC2)C1` [Example 197], the “PI3KA_Act Ki” value was 0.040 nM. In the case of `CC(C)S(=O)(=O)N1CC(C)(N2CCc3c(-c4cnc(N)nc4)nc(N4CCOCC4)nc32)C1` [Example 198], the “PI3KA_Act Ki” value came to 0.024 nM.
